Experimental data from article PMC2211560 (PLoS Medicine, 2008).
Several values for one entry are separate records, joined by “and”; a condition that tells them apart may be missing. Equal values may be shown once. Read-outs that look alike come from different tables or passages of the source.

Experiments:
mTOR = assay: S6 ribosomal protein phosphorylation in tumor tissue by IHC (S2 versus S1); type: in vivo, human; conditions: ratio of median IHC staining score S2 to S1, individual patients
Excerpt: To quantify mTOR activity in matched S1 and S2 samples, we measured phosphorylation of S6 ribosomal protein by immunohistochemistry using two distinct phosphosite antibodies directed against Ser235/236 or Ser240/244. […] Immunohistochemistry (IHC) scoring is described in detail in Text S1.
The following antibodies were used for IHC: anti-PTEN (6H2.1, #ABM-2052, Cascade BioScience; 1:400 dilution), anti-Ki-67 (MIB-1, M7240, DakoCytomation; 1:100 Dilution), anti-phospho Ser235/236 S6 (91B2, #4857, Cell Signaling; 1:50 dilution), anti phospho Ser240/244 S6 (#2215, Cell Signaling; 1:200 dilution), anti-phospho-PRAS 40 (#44–1100G, Biosource; 1:200 dilution), anti-phospho Ser473 Akt (736E11, #3787, Cell Signaling; 1:50 dilution), anti-phospho Thr389 p70 S6 Kinase (#9205, Cell Signaling; 1:100 Dilution), and anti phospho Ser1108 eIF4G at 1:400 (#2441, Cell Signaling; 1:400 dilution). Antigen retrieval was performed using 0.01 M citrate buffer, pH 6.0 for 30 min in an oven and peroxidase activity was quenched with 3% hydrogen peroxide in water. Primary antibodies were diluted in PBS /2% bovine serum albumin/2% normal horse serum (for anti-PTEN) or TBS/0.1% Tween/5% normal goat serum (for phosphosite-specific antibodies) and applied overnight at 4 °C. Biotinylated secondary antibodies (Vector) were applied at 1:200 dilution for 45 min, and the avidin-biotin complex (Elite ABC, Vector) for 30 min. Vector NovaRed was used as the enzyme substrate to visualize specific antibody localization. […] All slides were counterstained with Harris hematoxylin.
To quantify mTOR activity, we measured phosphorylation of S6 ribosomal protein by immunohistochemistry. S6 is a direct substrate of S6 kinase 1, a downstream effector of mTOR action, and has been widely used as a pharmacodynamic readout of mTOR inhibition in preclinical studies. To ensure specificity, we used two distinct phosphosite antibodies directed against Ser235/236 or Ser240/244 (Figure 2B). Both sites are directly phosphorylated by S6 kinase 1, but Ser235/236 can also be phosphorylated by p90 ribosomal S6 kinase (RSK) and other kinases. All measurements were quantified by digital readout of 2,500–5,000 tumor cells per slide cut from paraffin-embedded tissue (Figure S1).
Supplementary file pmed.0050008.sg001.pdf: Figure S1 Digital Scoring of Immunohistochemical Stains Adjacent tissue sections from each tumor were stained with antibodies against Ki-67, phospho S6 ribosomal protein (S6RP), phospho-PRAS40, and PTEN (unpublished data). Five areas per slide, each representing approximately 500–1,000 tumor cells, were selected for digital scoring. Image conversion and scoring was performed using Soft Imaging System Software. The distribution of immunoreactivity within these 2,500–5,000 cells was graphed for each sample as a box plot. The “fold change” (F.C.) in S6 immunoreactivity (Table 2 and Figure S2) was calculated for each tumor as the ratio between median staining score in the S2 and the median staining score in the S1 sample. (135 KB PDF) Click here for additional data file.
Scoring of immunohistochemical stains. Immunohistochemical screening of tumor samples for PTEN expression was based on a manual scoring method which compares PTEN staining of tumor cells to the PTEN staining of endothelial cells within the same viewfield and assigns scores of 0 (absent in tumor cells), 1 (reduced in tumor cells relative to endothelial cells), and 2 (tumor cells staining similar to endothelial cells). Digital scores for PTEN, phospho-S6, and phospho-PRAS40 are based on absolute staining intensity of tumor cells as quantified following false-color conversion.

[1] = tested on: recurrent PTEN-deficient glioblastoma; assay: Clinical outcome: time-to-progression and radiographic response; type: in vivo, human; conditions: for TTP: interval between start of rapamycin and postoperative treatment failure, individual patients
Excerpt: Figure 1 Clinical Trial Design Enrollment in the Phase I clinical trial was restricted to patients whose initial tumor resection (“surgery 1”) specimen was PTEN-deficient by immunohistochemistry. Patients were enrolled after failing standard therapy with radiation and chemotherapy (i.e., “tumor recurrence”).
Patients were allowed two dose reductions.

[2] = in vivo
Experimental: Adverse events were evaluated according to the National Cancer Institute Common Toxicity Criteria, version 2 (http://ctep.info.nih.gov/reporting/index.html).
The first three patients were enrolled at the initial dose level of 2 mg per day. After a four week evaluation period for dose limiting toxicity, a minimum of 3 more patients could be enrolled at the next dose level. […] Presurgical dosing included the loading dose followed by the daily maintenance dose until surgery. After the patient recovered from the effects of surgery, identical loading and maintenance doses (e.g., 6 mg and 2 mg, respectively) were administered. […] Assessment of drug safety was done following a routine schedule and supplemented by additional evaluation whenever a patient reported a new symptom. […] Toxicities were graded according to the National Cancer Institute Common Toxicity Criteria version 2.0. Treatments were held until recovery to ≤ grade 1 toxicity for ANC < 1000/µl, platelets < 80,000/ µl, grade 3 or grade 4 non-hematologic toxicities, and grade 4 hypercholesterolemia or hypertryglyceridemia. […] A 50 % dose reduction was made for ANC < 750/µl, platelets < 50,000/µl, or grade 4 non-hematological AE. Patients were allowed two dose reductions.

[3] = tested on: cytochrome P450 isoenzyme 3A4; conditions: cited from earlier work

CO[C@H]1C[C@@H]2CC[C@@H](C)[C@@](O)(O2)C(=O)C(=O)N2CCCC[C@H]2C(=O)O[C@H]([C@H](C)C[C@@H]2CC[C@@H](O)[C@H](OC)C2)CC(=O)[C@H](C)/C=C(\C)[C@@H](O)[C@@H](OC)C(=O)[C@H](C)C[C@H](C)/C=C/C=C/C=C/1C [Rapamycin]
pS6 S2/S1 pSer235/236 (mTOR; 2 mg oral daily): 0.46 and 1.01
pS6 S2/S1 pSer240/244 (mTOR; 2 mg oral daily): 0.61 and 0.82 and 0.85
pS6 S2/S1 pSer235/236 (mTOR; 5 mg oral daily): 0.91 and 0.48 and 0.22 and 0.77 and 1.16
pS6 S2/S1 pSer240/244 (mTOR; 5 mg oral daily): 0.94 and 0.51 and 0.18 and 0.58 and 0.54
pS6 S2/S1 pSer235/236 (mTOR; 10 mg oral daily): 0.78 and 0.55 and 0.19 and 0.81 and 1.50 and 0.60
pS6 S2/S1 pSer240/244 (mTOR; 10 mg oral daily): 0.27 and 0.58 and 0.44 and 0.60 and 0.56 and 0.91
TTP ([1]; 2 mg oral daily): 62 days and 40 days and 70 days
TTP ([1]; 5 mg oral daily): 194 days and 69 days and 144 days and 153 days and 42 days
TTP ([1]; 10 mg oral daily): 39 days and 538 days and 98 days and 146 days and 99 days and 55 days
tumor regression by magnetic resonance imaging ([1]; Patient 8, extended neoadjuvant course (25 d), 5 mg, prior to surgery): > 50%
duration of radiographically stable disease postoperatively ([1]; Patient 11): > 16 mo
time from starting rapamycin to death without evidence of tumor recurrence ([1]; Patient 11, 10 mg): 538 days
Radiographic Response to Rapamycin ([1]; single-agent rapamycin, study patients): 2/15
grade 3 or 4 toxicities ([2]; human): No grade 3 or 4 toxicities
patients with grade 3 adverse events (hypokalemia, hypercholesterolemia, and cytopenias) ([2]; human): Five of 15
patients with grade 3 adverse events (hypokalemia, hypercholesterolemia, and cytopenias) [2]: five
perioperative bleeding complications [2]: no perioperative bleeding complications
cytochrome P450 substrate [3]: substrate for the cytochrome P450 isoenzyme 3A4
